Results: publication PMC7377239, “Cardiovascular Effects of Polychlorinated Biphenyls and Their Major Metabolites” (Environmental Health Perspectives, 2020)
Structures can show the parent of a compound that is named as a salt. Where two headings read alike, the source gives them in different places.

Experiments:
[1] = test system: iCell endothelial cells (human iPSC-derived ECs); assay: Tube formation (tubulogenesis) assay in iCell endothelial cells, 18 h; format: cell-based; details: Homo sapiens, Endothelial cell, iPSC-EC tube formation, 18 hr; for activity at 0.1 µM: 0.10 µM; for minimal effective concentration: top concentration 100.00 µM
Procedure, shortened: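 Tube formation was measured by calcein AM imaging after overnight compound exposure (37°C, 0.5% DMSO vehicle) of human iPSC-derived ECs, 7,500/well, on reduced-growth-factor Geltrex in starvation medium. Vehicle-normalized data fitted to four-parameter logistic; POD set at one vehicle SD; without response, 100 μM taken as NOAEL.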

[2] = test system: HUVECs; assay: Tube formation (tubulogenesis) assay in HUVECs, 18 h; format: cell-based, human; details: Homo sapiens, HUVEC, 18 h, HUVECs; for activity at 0.1 µM: 0.10 µM; for minimal effective concentration: top concentration 100.00 µM
Procedure, shortened: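 HUVECs (passage 1–5) seeded on reduced-growth-factor basement membrane and exposed to compounds overnight at 37°C, 5% CO2, in 2× maintenance medium with 12.5 ng/mL VEGF; 0.5% DMSO vehicle. Calcein AM-stained tube networks imaged and analysed; vehicle-normalized readouts fit to four-parameter logistic, POD set at one SD of vehicle means.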

[3] = 0.00 µM control = 100.00, read-out: endo.mtl.18hr
[4] = 0.00 µM control = 100.00, read-out: endo.tlps.18hr
[5] = 0.00 µM control = 100.00, read-out: endo.tta.18hr
[6] = 0.00 µM control = 100.00, read-out: endo.ttl.18hr
[7] = 0.00 µM = 100.00, read-out: huvec.mtl.18hr
[8] = 0.00 µM = 100.00, read-out: huvec.tlps.18hr
[9] = 0.00 µM = 100.00, read-out: huvec.tta.18hr
[10] = 0.00 µM = 100.00, read-out: huvec.ttl.18hr

Compound: O=S(=O)(O)Oc1ccc(-c2ccc(Cl)cc2)cc1 [4'-yl PCB 3 sulfate]
- activity at 0.01 µM [1, 3]: 99.2%
- activity at 0.01 µM [1, 4]: 113%
- activity at 0.01 µM [1, 5]: 157%
- activity at 0.01 µM [1, 6]: 149%
- activity at 0.1 µM [1, 3]: 105%
- activity at 0.1 µM [1, 4]: 129%
- activity at 0.1 µM [1, 5]: 138%
- activity at 0.1 µM [1, 6]: 134%
- activity at 1 µM [1, 3]: 98.2%
- activity at 1 µM [1, 4]: 137%
- activity at 1 µM [1, 5]: 128%
- activity at 1 µM [1, 6]: 120%
- activity at 10 µM [1, 3]: 74.7%
- activity at 10 µM [1, 4]: 85.4%
- activity at 10 µM [1, 5]: 81.2%
- activity at 10 µM [1, 6]: 76.8%
- activity at 100 µM [1, 3]: 60.3%
- activity at 100 µM [1, 4]: 28%
- activity at 100 µM [1, 5]: 41.8%
- activity at 100 µM [1, 6]: 44.3%
- minimal effective concentration ([1]; read-out: endo.mtl.18hr POD): 4.33 µM
- minimal effective concentration ([1]; read-out: endo.tlps.18hr POD): 11.7 µM
- minimal effective concentration ([1]; read-out: endo.tta.18hr POD): 16.8 µM
- minimal effective concentration ([1]; read-out: endo.ttl.18hr POD): 11 µM
- activity at 0.01 µM [2, 7]: 107%
- activity at 0.01 µM [2, 8]: 166%
- activity at 0.01 µM [2, 9]: 116%
- activity at 0.01 µM [2, 10]: 109%
- activity at 0.1 µM [2, 7]: 106%
- activity at 0.1 µM [2, 8]: 138%
- activity at 0.1 µM [2, 9]: 140%
- activity at 0.1 µM [2, 10]: 133%
- activity at 1 µM [2, 7]: 117%
- activity at 1 µM [2, 8]: 173%
- activity at 1 µM [2, 9]: 125%
- activity at 1 µM [2, 10]: 123%
- activity at 10 µM [2, 7]: 93%
- activity at 10 µM [2, 8]: 102%
- activity at 10 µM [2, 9]: 93.4%
- activity at 10 µM [2, 10]: 88.6%
- activity at 100 µM [2, 7]: 57.3%
- activity at 100 µM [2, 8]: 38.9%
- activity at 100 µM [2, 9]: 53.2%
- activity at 100 µM [2, 10]: 59.7%
- minimal effective concentration ([2]; read-out: huvec.mtl.18hr POD): 11.2 µM
- minimal effective concentration ([2]; read-out: huvec.tlps.18hr POD): 100 µM
- minimal effective concentration ([2]; read-out: huvec.tta.18hr POD): 25.4 µM
- minimal effective concentration ([2]; read-out: huvec.ttl.18hr POD): 100 µM
